In ChEMBL document CHEMBL1201862, “PubChem BioAssay data set” (2004):
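How tested: cells in 96-well plates exposed to compound for 48 hours at five concentrations. Abbreviation: GI50, concentration required for 50% inhibition of growth.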 Active and inactive are the calls of the source. Rule as the data show it: active = GI50 up to about 1.1 µM and inactive = higher. Where a SMILES comes first, the peptide text is derived from it. The star is where a group is joined. Boc = CC(C)(C)OC(=O)*

How the values were obtained:
Assay in all cases: inhibition of tumour cell growth, NCI panel, 48 h
[1] = test system: MDA-MB-435
[2] = test system: Hs-578T
[3] = test system: MDA-N
[4] = test system: T47D
[5] = test system: DU-145
[6] = test system: MDA-MB-231
[7] = test system: DMS-114
[8] = test system: KM-20L2

| Compound | GI50 [1] | GI50 [2] | GI50 [3] | GI50 [4] | GI50 [5] | GI50 [6] | GI50 [7] | GI50 [8] |
| --- | --- | --- | --- | --- | --- | --- | --- | --- |
| N#C/N=[N+](\[O-])c1ccc(C(=O)O)cc1 | 17.9 µM (inactive) | 30.8 µM (inactive) | – | – | – | – | – | – |
| CC(C)(C)OC(=O)NC(Cc1ccc(OCc2ccccc2)cc1)C(=O)NC(COCc1ccccc1)C(=O)Oc1c(Cl)c(Cl)c(Cl)c(Cl)c1Cl (stereo not drawn) | 21.7 µM (inactive) | 17.7 µM (inactive) | 26.4 µM (inactive) | 22.8 µM (inactive) | 14.8 µM (inactive) | 13.5 µM (inactive) | – | – |
| C=CC[N+]12CN3CN(CN(C3)C1)C2 | 19.7 µM (inactive) | > 100 µM (inactive) | 17.3 µM (inactive) | 27 µM (inactive) | 21.1 µM (inactive) | 32.2 µM (inactive) | – | – |
| CC(C(=O)NCCNC(=O)CCC(=O)N(C)O)C(=O)NCCNC(=O)CCC(=O)N(C)O | > 100 µM (inactive) | > 100 µM (inactive) | > 100 µM (inactive) | > 100 µM (inactive) | > 100 µM (inactive) | > 100 µM (inactive) | – | – |
| CNc1ccc2c(c1)[C@@]1(C)c3ccccc3[C@@H](C2)N1C | 19.1 µM (inactive) | 29.7 µM (inactive) | 24.4 µM (inactive) | 28.1 µM (inactive) | 39.5 µM (inactive) | 23.2 µM (inactive) | – | – |
| O=c1[nH]nc(-c2ccccc2)n1/N=C/c1ccccc1Cl | 19.1 µM (inactive) | 16.2 µM (inactive) | 33.1 µM (inactive) | 24.8 µM (inactive) | 41.3 µM (inactive) | > 100 µM (inactive) | – | – |
| COP(C)(=O)/C(Cc1ccccc1)=N\O (stereo not drawn) | > 100 µM (inactive) | > 100 µM (inactive) | > 100 µM (inactive) | > 100 µM (inactive) | > 100 µM (inactive) | > 100 µM (inactive) | – | – |
| O=C1/C(=C/c2ccc(Oc3ccccc3)cc2)N=C(c2ccccc2)N1c1ccc(S(=O)(=O)Nc2nccs2)cc1 | 2.62 µM (inactive) | 39.4 µM (inactive) | 3.22 µM (inactive) | 12.8 µM (inactive) | 47 µM (inactive) | 28.2 µM (inactive) | – | – |
| CCOC(=O)c1ccc(C(=O)n2ccnc2)[nH]1 | > 100 µM (inactive) | > 100 µM (inactive) | > 100 µM (inactive) | > 100 µM (inactive) | > 100 µM (inactive) | > 100 µM (inactive) | – | – |
| CCOC(=O)CC[C@H](NC(=O)c1nc[nH]c1/N=N/N(C)C)C(=O)OCC | – | – | – | – | – | – | > 100 µM (inactive) | – |
| O=P1(O)c2ccccc2CS(=O)(=O)Cc2ccccc21 | > 100 µM (inactive) | > 100 µM (inactive) | > 100 µM (inactive) | > 100 µM (inactive) | > 100 µM (inactive) | > 100 µM (inactive) | – | – |
| COc1ccc(C(C2C(=O)N(C)C(=O)N(C)C2=O)C(F)(F)C(=O)N(C)C)cc1 (stereo not drawn) | > 100 µM (inactive) | – | – | > 100 µM (inactive) | > 100 µM (inactive) | > 100 µM (inactive) | – | – |
| C=C1CC(C)(COc2ccc3c(C)c(C)c(=O)oc3c2C)OC1=O (stereo not drawn) | 2.7 µM (inactive) | 1.9 µM (inactive) | 1.77 µM (inactive) | 1.28 µM (inactive) | 2.51 µM (inactive) | 2.52 µM (inactive) | – | – |
| Cc1ccc(S(=O)(=O)NC(=O)NC(CCCCNC(=N)N)C(=O)O)cc1 (stereo not drawn) | – | > 100 µM (inactive) | > 100 µM (inactive) | > 100 µM (inactive) | > 100 µM (inactive) | > 100 µM (inactive) | – | – |
| Cc1nc2n(c1/C=C1/C(=O)Nc3cccc(Cl)c31)CCS2 | 33.5 µM (inactive) | 22 µM (inactive) | 57.9 µM (inactive) | 15.1 µM (inactive) | 48.1 µM (inactive) | 18.7 µM (inactive) | – | – |
| COC(=O)Cc1c([C@H]2[C@H](CC(=O)OC)c3ccccc3N2C(=O)C(F)(F)F)[nH]c2ccccc12 | 21.9 µM (inactive) | 22.8 µM (inactive) | 32.3 µM (inactive) | 36.5 µM (inactive) | 63 µM (inactive) | 20.7 µM (inactive) | – | – |
| NC(=O)c1ccccc1NC(=O)C(=O)C(c1cnc2ccc([N+](=O)[O-])cc2n1)[N+](=O)[O-] (stereo not drawn) | > 100 µM (inactive) | > 100 µM (inactive) | – | > 100 µM (inactive) | – | > 100 µM (inactive) | – | – |
| O=C(N/N=C1\C(=O)Nc2ccc(Br)cc21)/C(O)=C/C(=O)c1ccc(Cl)cc1 | 39.9 µM (inactive) | 30.2 µM (inactive) | 39.3 µM (inactive) | 36.6 µM (inactive) | > 100 µM (inactive) | 45.5 µM (inactive) | – | – |
| Cc1nc2ccc(S(=O)(=O)Nc3nccs3)cc2c(=O)n1NS(=O)(=O)c1nccs1 | 40.3 µM (inactive) | > 100 µM (inactive) | > 100 µM (inactive) | > 100 µM (inactive) | > 100 µM (inactive) | > 100 µM (inactive) | – | – |
| C=C1COC(/C=C(\C)CC/C=C(\C)CCl)C1 (stereo not drawn) | – | – | – | – | – | – | > 100 µM (inactive) | > 100 µM (inactive) |
| CC(C)Oc1cccc(N2C(n3ccnc3)=Nc3ccncc3S2(=O)=O)c1 | 11.9 µM (inactive) | 19 µM (inactive) | 12.8 µM (inactive) | 13.1 µM (inactive) | 12.2 µM (inactive) | – | – | – |
| CC(C)=CCN1c2ccc(Cl)cc2NC(=O)CC1C (stereo not drawn) | 19.5 µM (inactive) | 24.3 µM (inactive) | 21.7 µM (inactive) | 29.6 µM (inactive) | 42.1 µM (inactive) | 19.3 µM (inactive) | – | – |

| Compound | GI50 [1] | GI50 [2] | GI50 [3] | GI50 [4] | GI50 [5] | GI50 [6] | GI50 [7] | GI50 [8] |
| --- | --- | --- | --- | --- | --- | --- | --- | --- |
| COc1ccc(-c2csc3c2[N+]2(C)C=CC=C2C3N2CCCC2)cc1 (stereo not drawn) | 3.13 µM (inactive) | 15.7 µM (inactive) | 7.6 µM (inactive) | 16.3 µM (inactive) | – | 94 µM (inactive) | – | – |
| CN1CN(c2ccccc2)C2(CCN(CCCC(=O)c3cccs3)CC2)C1=O | – | – | 68.7 µM (inactive) | 29 µM (inactive) | 36.6 µM (inactive) | 50.9 µM (inactive) | – | – |
| CCOC(=O)c1cn2c(n1)sc1cc([N+](=O)[O-])ccc12 | > 100 µM (inactive) | > 100 µM (inactive) | – | > 100 µM (inactive) | > 100 µM (inactive) | 38.5 µM (inactive) | – | – |
| C(=C\Nc1ccc(Oc2ccccc2)cc1)/C=N/c1ccc(Oc2ccccc2)cc1 | 17.4 µM (inactive) | 19.9 µM (inactive) | 16.2 µM (inactive) | – | 20.1 µM (inactive) | 17.1 µM (inactive) | – | – |
| CCCCCCCC(=O)OCC1OC(n2cc(F)c(=O)[nH]c2=O)C(NC(=O)OCc2ccccc2)C(OC(=O)CCCCCCC)C1O (stereo not drawn) | – | – | – | – | – | – | 24 µM (inactive) | 34.7 µM (inactive) |
| CCOC(=O)C(NC(=O)N(C1=NCC(C)S1)C1CCCCC1)(OC)C(F)(F)F (stereo not drawn) | 32.2 µM (inactive) | 42.5 µM (inactive) | 30.9 µM (inactive) | 32.5 µM (inactive) | 36.2 µM (inactive) | 46.5 µM (inactive) | – | – |
| COc1ccc(N(C)C(=O)N(C)c2ccc([N+](=O)[O-])cc2)cc1 | 4.21 µM (inactive) | 6.4 µM (inactive) | 9.25 µM (inactive) | 66.4 µM (inactive) | 90.6 µM (inactive) | 45.3 µM (inactive) | – | – |
| CCOC(=O)c1csc(NC(=O)CCN2CCCCC2)n1 | > 100 µM (inactive) | – | > 100 µM (inactive) | > 100 µM (inactive) | > 100 µM (inactive) | > 100 µM (inactive) | – | – |
| CSC(=N)N1N=C2/C(=C/c3ccccc3)CCC[C@H]2[C@H]1c1ccccc1 | – | – | – | – | – | – | 2.9 µM (inactive) | 2.34 µM (inactive) |
| CCCc1cc(=O)oc2c3c(c4c(c12)OC(C)(C)CC4)O[C@@H](C)[C@H](C)[C@H]3O | 5.94 µM (inactive) | 15.8 µM (inactive) | 2.69 µM (inactive) | 6.58 µM (inactive) | 17.8 µM (inactive) | 2.16 µM (inactive) | – | – |
| COc1cc(C)cc(OC)c1/C=C/C(=O)O | > 100 µM (inactive) | 24.8 µM (inactive) | > 100 µM (inactive) | > 100 µM (inactive) | – | > 100 µM (inactive) | – | – |
| CC1(c2nc3ccccc3[nH]2)CCC(C#N)C(C)(C)O1 (stereo not drawn) | > 100 µM (inactive) | > 100 µM (inactive) | > 100 µM (inactive) | > 100 µM (inactive) | > 100 µM (inactive) | > 100 µM (inactive) | – | – |
| COc1cc(CO)c(CC(=O)NCCCc2ccccc2)cc1OC | 56 µM (inactive) | > 100 µM (inactive) | 34.1 µM (inactive) | 15 µM (inactive) | > 100 µM (inactive) | > 100 µM (inactive) | – | – |
| CCN(CCO)C(=O)C1(c2ccccc2)CCCCC1 | > 10 µM (inactive) | > 10 µM (inactive) | – | > 10 µM (inactive) | > 10 µM (inactive) | > 10 µM (inactive) | – | – |
| CS(=O)(=O)c1n[nH]c2nc(O)nc(O)c12 | > 10 µM (inactive) | > 10 µM (inactive) | > 10 µM (inactive) | > 10 µM (inactive) | > 10 µM (inactive) | > 10 µM (inactive) | – | – |
| CCCCCCc1cc2cc(C(=O)Nc3nc(C45CC6CC(CC(C6)C4)C5)cs3)c(=O)oc2cc1O | 7.13 µM (inactive) | 11.8 µM (inactive) | 11.4 µM (inactive) | 5.68 µM (inactive) | 22.1 µM (inactive) | 7.33 µM (inactive) | – | – |
| BrP(NC1CCCCCC1)(c1ccccc1)(c1ccccc1)c1ccccc1 | 2.15 µM (inactive) | 3 µM (inactive) | – | 1.93 µM (inactive) | 8.26 µM (inactive) | 3.56 µM (inactive) | – | – |
| CCCOC1OC(CS(=O)(=O)O)C(O)C(O)C1O (stereo not drawn) | > 100 µM (inactive) | > 100 µM (inactive) | > 100 µM (inactive) | > 100 µM (inactive) | > 100 µM (inactive) | – | – | – |
| S=C(S)N1CCN(c2ccccc2)CC1 | > 100 µM (inactive) | > 100 µM (inactive) | > 100 µM (inactive) | > 100 µM (inactive) | > 100 µM (inactive) | > 100 µM (inactive) | – | – |
| Cc1cnc2nc(-c3ccc4ccccc4c3)cc(O)c2c1 | – | 0.449 µM (active) | – | > 100 µM (inactive) | 0.408 µM (active) | 1.05 µM (active) | – | – |
| COC(=O)[C@H](Cc1ccc(O)cc1)NC(=O)[C@H](Cc1ccc(O)cc1)NC(=O)OC(C)(C)C (Boc-Tyr-Tyr-OMe) | – | > 100 µM (inactive) | > 100 µM (inactive) | – | > 100 µM (inactive) | 60 µM (inactive) | – | – |
| Oc1cc(O)c2c(c1)O[C@H](c1ccc(O)c(O)c1)[C@@H](O)C2 [CIANIDANOL] | > 100 µM (inactive) | > 100 µM (inactive) | > 100 µM (inactive) | > 100 µM (inactive) | > 100 µM (inactive) | > 100 µM (inactive) | – | – |
